Measured values: paper PMC12113730 (Microorganisms, 2025)
Like-named read-outs stand apart in the source and are kept apart here. Ends that are not written are not given here.

Columns and labels:
C. albicans ATCC 18804 = details: ATCC 18804, 48 h
Experimental: (§1) For the antifungal tests, the strains C. albicans ATCC 90028, C. albicans ATCC 18804 and C. albicans ATCC 10231 were donated by the National Institute of Quality Control in Health (INCQS—Fundação Oswaldo Cruz—Fiocruz, Rio de Janeiro, Brazil). To prepare C. albicans for the tests, the lyophilized microorganism was initially reactivated in Sabouraud Dextrose Broth (Kasvi, Pinhais, Brazil) and incubated at 37 °C for 24 h. Then, the yeasts were seeded in Sabouraud Dextrose Agar and incubated for 48 h at 37 °C. Finally, the stock culture obtained was stored in a refrigerator at 4 °C for 3 months.
(§2) To prepare the standardized suspensions, some colonies of C. albicans stock cultures were seeded in Sabouraud Dextrose Broth and incubated for 24 h at 37 °C. After this time, a small aliquot of the inoculum was transferred to sterile Sabouraud Dextrose Broth to obtain a suspension with optical density (OD) between 0.10 and 0.15 (530 nm), with approximate concentration of 1 × 10^6 CFU mL^−1 [34, 35]. Finally, the suspension was diluted to obtain a concentration of 1 × 10^3 CFU mL^−1, which was used in the tests described below.
(§3) The antifungal activity tests were performed using broth microdilution. The broth microdilution was performed as described in the M27-A3 document of Clinical and Laboratory Standards Institute (CLSI) with modifications. The medium used was Sabouraud Dextrose Broth (SDB). The synthetic peptides were dissolved in a Tris·HCl 10 mM pH 7.2 buffer and added to the plate containing SDB for a final concentration in the first well of 160 µmol L^−1. The cell suspension was prepared as described under “Microorganisms and growth conditions”. This suspension was inoculated on a microdilution plate previously prepared with the peptides diluted in a concentration range from 160 to 0.31 µmol L^−1. The control drug used was fluconazole (FLU), diluted in deionized water. The plates were incubated at 37 °C for 48 h and at the end of the incubation time, the OD in each well was read in a spectrophotometer at 595 nm. The test was performed in triplicate for each of the strains.

[1] = test system: C. albicans ATCC 10231 (fluconazole-resistant); details: fluconazole-resistant strain, Sabouraud Dextrose Broth, 37 °C, 48 h, OD 595 nm, triplicate
Experimental: as §1, §2, §3

[2] = cationic-PAGE; for Peptide remaining (band quantification): 0 h, 50 µg mL^-1 peptide in 10-fold diluted pooled human WSS, Coomassie, Image Lab relative quantity, mean ± SD, duplicate samples; for Band of the peptide in the gel at 8 h (in words) / Time at which the band was no longer observed in the gel (total/complete degradation): 50 µg mL^-1 peptide in 10-fold diluted human WSS
Experimental: (§4) After an informed consent was obtained from all participants, stimulated whole saliva (WS) samples were collected from healthy, non-smoking adult male and female volunteers ranging from 25 to 39 years old. WS was obtained for three volunteers with good general oral health who were not taking medications that could alter their salivary flow and was performed as described previously in [29, 39]. Salivary secretion was stimulated by chewing a piece of Parafilm wax. WS was collected between 9 and 11 am, at least 2 h after the last meal. The salivary secretion was collected using a collecting tube that was kept on ice until obtaining 5.0 mL. The total volume of collected saliva was centrifuged at 4500× g (Sorvall™ ST 16 Centrifuge—Thermo Fisher Scientific, Waltham, MA, USA) at 4 °C for a period of 30 min to separate bacteria, cells and residues. The total whole saliva pellet and the total whole saliva supernatant (WSS) were separated, and the WSS was pooled and used for the degradation assay.
(§5) To assess and compare proteolysis degradation in the WS environment, all the peptides were added to WSS to observe their degradation over time by cationic-PAGE and HPLC. To investigate the degradation of each peptide, 50 µg mL^−1 of synthetic peptides 0WHst5, WP113, 8WH5, 7WH5 and 6WH5 were added to 10-fold diluted WSS. After 0, 0.5, 1.5, 4, 6, 8, 24 and 48 h of incubation, two aliquots of 100 µL were removed (one for the cationic-PAGE analysis another for HPLC analysis). After that, the aliquots were boiled for 5 min to terminate proteolytic activity. Subsequently the aliquots were diluted in a buffer containing 80% acetonitrile/19.9% H2O/0.1% trifluoroacetic acid, dried using a Vacufuge concentrator (Eppendorf, Westbury, NY, USA) and desalted using ZipTip® Pipette Tips (Merk, Rahway, NJ, USA) to concentrate and purify the samples [29].
(§6) For the cationic-PAGE, the aliquots were dried using a Vacufuge concentrator and resuspended in sample buffer containing 0.04% methyl green (Thermo Fisher Scientific, Waltham, MA, USA) in 40% sucrose. Then, 5 μg of each peptide was used as standard for the test. The stacking and separation gels were polymerized using 100 W incandescent light for 9 min each and the electrophoresis was carried out at a constant voltage of 120 V. The gels were stained with 0.1% Coomassie brilliant blue (w/v), 8% methanol (v/v) and 7% acetic acid (v/v) overnight with agitation. Destaining was carried out with 40% methanol, 10% acetic acid and 50% water (v/v). The extent of degradation was quantified by Image Lab using the relative quantity tool.

[3] = for HPLC peak of intact peptide after 8 h (in words): 50 µg mL^-1 peptide in 10-fold diluted human WSS, RP-HPLC C18, UV 280 nm; for Time after which the peptide was still found in the samples in whole saliva: abstract, cationic-PAGE and HPLC assays
Experimental: as §4
To assess and compare proteolysis degradation in the WS environment, all the peptides were added to WSS to observe their degradation over time by cationic-PAGE and HPLC. […] After 0, 0.5, 1.5, 4, 6, 8, 24 and 48 h of incubation, two aliquots of 100 µL were removed (one for the cationic-PAGE analysis another for HPLC analysis). After that, the aliquots were boiled for 5 min to terminate proteolytic activity. Subsequently the aliquots were diluted in a buffer containing 80% acetonitrile/19.9% H2O/0.1% trifluoroacetic acid, dried using a Vacufuge concentrator (Eppendorf, Westbury, NY, USA) and desalted using ZipTip® Pipette Tips (Merk, Rahway, NJ, USA) to concentrate and purify the samples [29].
The aliquots collected for the HPLC analysis were also dried, desalted and resuspended in 30 μL of 10 mM Tris·HCl pH 7.2 buffer solution. Then, 30 µL was analyzed by HPLC in analytical mode using a Waters Symmetry® C18 5 µm, 4.6 × 250 mm reverse phase column (Part No. WAT054275) (Waters, Milford, MA, USA). The solvents used were all chromatographic grade (purchase from Sigma-Aldrich®, St. Louis, MO, USA) and the water used was ultrapure. The chromatographic conditions were solvents A (0.045% TFA/H2O) and B (0.036% TFA/ACN), in a gradient of 5% to 95% B in 30 min, with a flow of 0.53 mL min^−1 at a detector wavelength of 280 nm, using a Waters Alliance 2695 HPLC connected to a Waters 2996 photodiode array detector (Waters, Milford, MA, USA).

in vitro = details: both, human, 10-fold diluted pooled whole saliva supernatant (WSS)
Experimental: as §4, §5, §6

C. albicans ATCC 90028 = details: ATCC 90028, 48 h, 20 µmol L^-1
Experimental: as §1, §2, §3

C. albicans = details: some species of C. albicans; cited from earlier work
Source text: High levels of Hst5 were found in the saliva of patients with periodontal and oral fungal infections.

Molecule	Inhibition of C. albicans ATCC 18804 (C. albicans ATCC 18804; 80 µmol L^-1)	Inhibition of C. albicans ATCC 10231 ([1]; peptide 160 µmol L^-1) [%]	Peptide remaining (band quantification) [2] [%]	Band of the peptide in the gel at 8 h (in words) [2]	HPLC peak of intact peptide after 8 h (in words) [3]	Time after which the peptide was still found in the samples in whole saliva [3] [h]	remaining at 0.5 h, 50 µg mL^-1 (in vitro) [%]	remaining at 4 h, 50 µg mL^-1 (in vitro) [%]	remaining at 6 h, 50 µg mL^-1 (in vitro) [%]	remaining at 8 h, 50 µg mL^-1 (in vitro) [%]	remaining at 24 h, 50 µg mL^-1 (in vitro) [%]	remaining at 48 h, 50 µg mL^-1 (in vitro) [%]	Inhibition of C. albicans ATCC 18804 (C. albicans ATCC 18804; 40 µmol L^-1)	Inhibition of growth of C. albicans ATCC 10231 ([1]; peptide 40 µmol L^-1) [%]	Inhibition of C. albicans ATCC 90028 (C. albicans ATCC 90028) [%]	Time at which the band was no longer observed in the gel (total/complete degradation) [2] [h]	Inhibition of C. albicans ATCC 18804 (C. albicans ATCC 18804; 20 µmol L^-1)	Minimum inhibitory concentration (MIC) (C. albicans) [µg/mL]	Inhibition of C. albicans ATCC 18804 (C. albicans ATCC 18804; 160 µmol L^-1)
WKRHHGYK [Peptide 7WH5]	greater than 80%	90.9	100.0 ± 0.0	possible to visualize the band	still detectable	≥ 8	100 ± 4.5	86.2 ± 3.1	55.9 ± 5.8	49.6 ± 2.4	19.1 ± 7.5	6.9 ± 1							
WKRHHGYKR [Peptide 8WH5]			100.0 ± 0.0	possible to visualize the band	still detectable	≥ 8	99.9 ± 8	80.3 ± 13	62 ± 8.4	44.2 ± 0.9	8.6 ± 4.4	3.5 ± 0.8	greater than 80%	85					
WAKRHHGYKRKFH [WP113]			100.0 ± 0.0		disappeared		89.5 ± 7.3	7.23 ± 8.17							76	> 4			
C[C@H](NC(=O)[C@H](Cc1c[nH]cn1)NC(=O)[C@H](CO)NC(=O)[C@H](CC(=O)O)NC(=O)[C@@H](N)Cc1c[nH]c2ccccc12)C(=O)N[C@@H](CCCCN)C(=O)N[C@@H](CCCNC(=N)N)C(=O)N[C@@H](Cc1c[nH]cn1)C(=O)N[C@@H](Cc1c[nH]cn1)C(=O)NCC(=O)N[C@@H](Cc1ccc(O)cc1)C(=O)N[C@@H](CCCCN)C(=O)N[C@@H](CCCNC(=N)N)C(=O)N[C@@H](CCCCN)C(=O)N[C@@H](Cc1ccccc1)C(=O)N[C@@H](Cc1c[nH]cn1)C(=O)N[C@@H](CCC(=O)O)C(=O)N[C@@H](CCCCN)C(=O)N[C@@H](Cc1c[nH]cn1)C(=O)N[C@@H](Cc1c[nH]cn1)C(=O)N[C@@H](CO)C(=O)N[C@@H](Cc1c[nH]cn1)C(=O)N[C@@H](CCCNC(=N)N)C(=O)NCC(=O)N[C@@H](Cc1ccc(O)cc1)C(=O)O [Peptide 0WHst5]							91 ± 17								75	≤ 4	greater than 80%		
Histatin 5 [Hst5]																		8 to 16	
WKRHHGY [Peptide 6WH5]	above 70%		100.0 ± 0.0	possible to visualize the band	still detectable	≥ 8	98.8 ± 1.1	79.3 ± 9.8	52.4 ± 7	30.6 ± 4	16.5 ± 5.9	8.3 ± 6.2							greater than 80%
